The results in this text go back to US4078058A (priority 1976, dated 1978).

Holding throughout (type): cell-based
In one assay the test system is Klebsiella pneumoniae. Kind of assay: In vitro inhibition in nutrient broth, Klebsiella pneumoniae. As to conditions: no growth by 48 hours; inoculum 0.2 ml of 1/10,000 dilution of overnight culture.
The test system of a further assay is bacterial growth. Kind of assay: Inhibition of bacterial growth in nutrient broth (turbidity), organism not specified. Conditions: 18-20 hours incubation at 37° C.
The next assay relates to Staph. aureus. Kind of assay: In vitro inhibition in nutrient broth, Staph. aureus. Conditions: no growth by 48 hours; inoculum 0.2 ml of 1/10,000 dilution of overnight culture.
The test system of a further assay is Pseudomonas aeruginosa. Kind of assay: In vitro inhibition in nutrient broth, Pseudomonas aeruginosa. Conditions: no growth by 48 hours; inoculum 0.2 ml of 1/10,000 dilution of overnight culture.
In another assay the test system is Esch. coli. Kind of assay: In vitro inhibition in nutrient broth, Esch. coli. Conditions: no growth by 48 hours; inoculum 0.2 ml of 1/10,000 dilution of overnight culture.

Experimental for Esch. coli: (§1) In these tests bacterial growth was measured or observed by turbidity in the test tubes containing the inoculated nutrient broth after 18-20 hours incubation at 37° C.
(§2) *Concentration -- μM/ml which permitted no growth by 48 hours.
(§3) Inoculum = 0.2 ml of 1/10,000 dilution of overnight culture.
Experimental for Klebsiella pneumoniae: as §1, §2, §3
Experimental for Pseudomonas aeruginosa: as §1, §2, §3
Experimental for Staph. aureus: as §1, §2, §3
Experimental for bacterial growth: as §1

Consider `O=[N+]([O-])[O-].O=[N+]([O-])[O-].O=[N+]([O-])[O-].[Ce+3]` [Cerous nitrate, cerous nitrate], for which, in the assay on Klebsiella pneumoniae, the “Inhibitory concentration, Klebsiella pneumoniae” value amounted to 5.0 μM per ml. In the assay with bacterial growth, the “concentration inhibiting bacterial growth” value is on record as “at least 1.0 μM per ml”. Further, in the assay on Staph. aureus, the “Inhibitory concentration, Staph. aureus” value is 5.0 μM per ml. The “Inhibitory concentration, Pseudomonas aeruginosa” value in the assay with Pseudomonas aeruginosa is recorded as 2.5 μM per ml. Besides, the “Inhibitory concentration, Esch. coli” value in the assay with Esch. coli was 2.5 μM per ml.

In the case of `O=[N+]([O-])[O-].[Ag+]` [Silver nitrate, silver nitrate], the “Inhibitory concentration, Klebsiella pneumoniae” value with Klebsiella pneumoniae was determined as 0.1 μM per ml. Also, in the assay with Staph. aureus, the “Inhibitory concentration, Staph. aureus” value was 0.005 μM per ml. Moreover, in the assay on Pseudomonas aeruginosa, the “Inhibitory concentration, Pseudomonas aeruginosa” value was determined as 0.025 μM per ml. In addition, the “Inhibitory concentration, Esch. coli” value in the assay with Esch. coli amounted to 0.005 μM per ml.
